Assays:
A549 = format: cell-based; settings: 48 hour incubation, unit not given (tested from 100 μM); for GI50: read-out: GI50 (dose inhibiting 50% cell growth); for CC50: read-out: LC50 (dose killing 50% of initially seeded cells)
Protocol: (§1) Anticancer activity tests were made on colon (HCT116, HT29, HCT15), lung (A549, H460) and ovarian (OVCARS, OVCAR3, NCI-ADRRES) cancer cell lines in vitro. All cell lines were obtained from American Type Culture Collection (Manassas, Va., USA) or American National Cancer Institute (NCl, USA). All cell lines were grown in RPMI1640 medium supplemented with 25 mM HEPES, 2 mM L-Glutamine, 5-10% fetal calf serum and antibiotics at 37° C. in a humidified 5% CO2 atmosphere.
(§2) The effect of the aforementioned compound on the selected cell lines indicated above was tested with Sulforhodamine B (SRB) assay that is also used by American National Cancer Institute. 100 μL of cancer cells were seeded at densities between 5.000-40.000 per well of a 96 well plate. The cells were incubated for 24 h for adaptation. […] The tested complex was dissolved in DMSO at 100 μM initial concentration and diluted to obtain 10 different concentrations as 1:2, 1:4 or 1:10. Every different concentration was analyzed in triplicates and in two independent experiments. The cells were fixed with 50% (w/v) ice-cold TCA in situ after 48 hour incubation. SRB dye bound to the cells was dissolved by unbuffered 10 mM Tris solution and absorbance values were measured at 530 nm in an ELISA microplate reader. Percentages for cell growth that were calculated from absorbance measurements (initial: TZ, control: C, complex at different concentrations: Ti) are as described below:
(§3) Gl50 (dose inhibiting 50% cell growth)=[Ti−Tz)/(C-Tz)]×100=50
(§4) TGI (total growth inhibition): Ti=Tz
(§5) LC50 (dose killing 50% of initially seeded cells)=[(Ti−Tz)/Tz]×100=−50

H460 = format: cell-based; settings: 48 hour incubation, unit not given (tested from 100 μM); for GI50: read-out: GI50 (dose inhibiting 50% cell growth); for CC50: read-out: LC50 (dose killing 50% of initially seeded cells)
Protocol: as §1, §2, §3, §4, §5

HCT116 = format: cell-based; settings: for TGI (total growth inhibition) / GI50 / CC50: 48 hour incubation, unit not given (tested from 100 μM); for GI50: read-out: GI50 (dose inhibiting 50% cell growth); for CC50: read-out: LC50 (dose killing 50% of initially seeded cells)
Protocol: as §1, §2, §3, §4, §5

HCT15 = format: cell-based; settings: for TGI (total growth inhibition) / GI50 / CC50: 48 hour incubation, unit not given (tested from 100 μM); for GI50: read-out: GI50 (dose inhibiting 50% cell growth); for CC50: read-out: LC50 (dose killing 50% of initially seeded cells)
Protocol: as §1, §2, §3, §4, §5

HT29 = format: cell-based; settings: for TGI (total growth inhibition) / GI50 / CC50: 48 hour incubation, unit not given (tested from 100 μM); for GI50: read-out: GI50 (dose inhibiting 50% cell growth); for CC50: read-out: LC50 (dose killing 50% of initially seeded cells)
Protocol: as §1, §2, §3, §4, §5

NCI-ADRRES = format: cell-based; settings: 48 hour incubation, unit not given (tested from 100 μM); for GI50: read-out: GI50 (dose inhibiting 50% cell growth); for CC50: read-out: LC50 (dose killing 50% of initially seeded cells)
Protocol: as §1, §2, §3, §4, §5

OVCAR3 = format: cell-based; settings: 48 hour incubation, unit not given (tested from 100 μM); for GI50: read-out: GI50 (dose inhibiting 50% cell growth)
Protocol: as §1, §2, §3, §4, §5

OVCAR5 = format: cell-based; settings: 48 hour incubation, unit not given (tested from 100 μM); for GI50: read-out: GI50 (dose inhibiting 50% cell growth); for CC50: read-out: LC50 (dose killing 50% of initially seeded cells)
Protocol: as §1, §2, §3, §4, §5

HCT116 cancer cells = test: HCT116 xenograft study in NOD/SCID mice; format: in vivo; set-up: key to tumor size: tumor volume in mm^3, (a×b²)/2 from caliper length and width; settings: for tumor size / ΔT/ΔC % value: HCT116 xenograft, complex 40 mg/kg, oxaliplatin 5 mg/kg; for tumor size: no unit in table (method gives tumor volume in mm^3); for ΔT/ΔC % value: day 22, highly active compounds have values less than 42%
Protocol: Xenograft studies were made by using HCT116 colon cancer cell lines after observing that the subject of the invention, palladium(II) complex, is especially effective on colon cancer cells. […] To obtain the xenografts, approximately 10^6 cells from exponentially growing HCT116 cells were intradermally injected in the axillae of 6-8 weeks old NOD/SCID mice by using the English double sided trocar implantation method. Two separate injections were made to each mouse. Two tumor inocula were added to each mouse in order to produce one tumor load for each mouse. […] These positive effects are the beneficial aspects of the English system.
Treatment was started in randomly chosen animal groups when the tumor volume reached 100-200 mm^3. […] The treatment was performed in 5 days of application and 2 days of resting periods. Tumor volume was calculated from [(axb^2)/2] formula. In this formula, a and b are tumor length and width which are measured by vernier caliper. Measurements were repeated twice weekly. Treated animals received a single dose from the drugs. Apart from tumor volume, ΔT/ΔC % values were calculated from ΔT═T−D0 and ΔC═C−D0 equations. D0 is the mean tumor volume at the beginning of the treatment, T is the mean tumor volume of treated mice and C is the mean tumor volume of untreated (not injected with complex) mice which is used as a control. […] Weight loss, neurological disorders and changes in diet were recorded as indication of toxicity (side effects). The experiments were terminated when the tumor volume reached approximately to 1000-1500 mm^3.

A549 cells = settings: cited from earlier work
[1] = Day 19 (value equal in all groups, start of treatment)
[2] = versus cisplatin, oxaliplatin and carboplatin

Compound | TGI (total growth inhibition) (A549) | GI50 (A549) | CC50 (A549) | TGI (total growth inhibition) (H460) | GI50 (H460) | CC50 (H460) | TGI (total growth inhibition) (HCT116) | GI50 (HCT116) | CC50 (HCT116) | TGI (total growth inhibition) (HCT15) | GI50 (HCT15) | CC50 (HCT15) | TGI (total growth inhibition) (HT29) | GI50 (HT29) | TGI (total growth inhibition) (NCI-ADRRES) | GI50 (NCI-ADRRES) | TGI (total growth inhibition) (OVCAR3) | GI50 (OVCAR3) | TGI (total growth inhibition) (OVCAR5) | GI50 (OVCAR5) | also measured
N.N.O=C([O-])C1(C(=O)[O-])CCC1.[Pt+2] [Carboplatin, carboplatin] | >100 | > 100 µM | > 100 µM | >100 | > 100 µM | > 100 µM | >100 | > 100 µM | > 100 µM | >100 | > 100 µM | > 100 µM | >100 | > 100 µM | >100 | > 100 µM | >100 | > 100 µM | >100 | > 100 µM | CC50 (HT29): > 100 µM; CC50 (NCI-ADRRES): > 100 µM; CC50 (OVCAR5): > 100 µM
N.N.[Cl][Pt][Cl] [Cisplatin, cisplatin] | 55.1 | 6.6 µM |  | 50.3 | 8.9 µM |  | 90.2 | 24.8 µM |  | 85.9 | 57.3 µM |  | 92.0 | 29.8 µM | >100 | 9.9 µM | >100 | 34.3 µM | >100 | 57.8 µM | 
O=C1[O][Pt]2([NH][C@@H]3CCCC[C@H]3[NH]2)[O]C1=O [Oxaliplatin, oxaliplatin] | 58.2 | 4.4 µM |  | 95.6 | 6.8 µM |  | 64.1 | 0.9 µM |  | 17.2 | 6 µM |  | 56.5 | 6.3 µM | >100 | 24.8 µM | >100 | 9.1 µM | >100 | 50.7 µM | tumor size (HCT116 cancer cells; [1]): 245.96; tumor size (HCT116 cancer cells; Day 22): 361.82 ± 153.96; tumor size (HCT116 cancer cells; Day 26): 538.00 ± 203.51; tumor size (HCT116 cancer cells; Day 29): 622.29 ± 152.76; tumor size (HCT116 cancer cells; Day 33): 847.06 ± 176.45; ΔT/ΔC % value (HCT116 cancer cells): +70.60%
CCC1(CC)C(=O)NC(=O)[N]([Pd-2]23[n+]4ccccc4C[NH+]2Cc2cccc[n+]23)C1=O.O.[Cl-] [[Pd(bpma)(barb)]Cl•H2O, [Pd(bpma)(barb)]Cl·H2O] | 80.1 | 43.1 µM | > 100 µM | 75.9 | 44.4 µM | > 100 µM | 9.1 | 4.9 µM | 82.4 µM | 9.9 | 6.8 µM | 89.1 µM | 6.6 | 3 µM | 10.0 | 5.6 µM | 25.2 | 6.5 µM | 63.5 | 40 µM | cytotoxic effect compared to anticancer drugs (HCT116; [2]): selectively effective; cytotoxic effect compared to anticancer drugs (HCT15; [2]): selectively effective; CC50 (HT29): 22 µM; cytotoxic effect compared to anticancer drugs (HT29; [2]): selectively effective; CC50 (NCI-ADRRES): > 100 µM; CC50 (OVCAR5): 87 µM; tumor size (HCT116 cancer cells; [1]): 245.96; tumor size (HCT116 cancer cells; Day 22): 195.61 ± 151.45; tumor size (HCT116 cancer cells; Day 26): 373.88 ± 157.42; tumor size (HCT116 cancer cells; Day 29): 577.38 ± 157.37; tumor size (HCT116 cancer cells; Day 33): 782.22 ± 228.55; decrease of tumor volume compared to oxaliplatin (HCT116 cancer cells; all time points of measurement, complex 40 mg/kg vs oxaliplatin 5 mg/kg): decreased the tumor volume more effectively than oxaliplatin in all time points of measurement; ΔT/ΔC % value (HCT116 cancer cells): −29.88%
O.O.O=C1[N-]S(=O)(=O)c2ccccc21.[Cl][Pd-2]12[n+]3ccccc3C[NH+]1Cc1cccc[n+]12 [[Pd(bpma)Cl](sac)·2H2O] |  |  |  |  |  |  |  |  |  |  |  |  |  |  |  |  |  |  |  |  | cytotoxic effect (A549 cells): showed a cytotoxic effect on A549 cells, similar to cisplatin
